{"source": "patent US20170304223A1", "about": "“METHOD OF TREATING PROSTATE CANCER USING A PKC INHIBITOR” (priority 2016, published 2017)", "key": {"[1]": {"system": "RWPE cells", "assay": "Cell proliferation assay / cell counting, RWPE cells", "format": "cell-based, human", "conditions": "10 μM, non-malignant cells (RWPE)", "description": "(§1) RWPE epithelial cells and DU-145 human prostate carcinoma cells were purchased from American Type Culture Collection (ATCC). PC-3 cells were acquired from Moffit Cancer center. The cells were grown as a monolayer in a T25 tissue culture flask with 5 mL of growth medium and maintained in a 37 C incubator with 5% CO2. The E-MEM and F-12 growth media were obtained from ATCC. The medium was supplemented with 10% fetal bovine serum (FBS) and a mix of the antibiotics Penicillin (10,000 IU) and Streptomycin (10,000 μg/ml) in a 100× concentration which was purchased from Corning.\n(§2) RWPE, DU 145 and PC-3 cells were cultured in a T25 cell culture flasks. 20,000 cells were seeded into each. […] The treatment was repeated over the course of 72 hours and samples were taken at 24 hour intervals.\n(§3) RWPE, DU 145, and PC-3 cells were cultured in a T25 cell culture flasks. At assigned intervals the cells were trypsonized and put into a 1.5 mL microcentrifuge tube. Cells were inverted gently to keep the solution homogeneous and then the Cell Scepter by Millipore was used to measure cell numbers."}, "[2]": {"target": "T1, PKC-τ (Homo sapiens, UniProt P41743)", "T1 construct": "endogenous in cells; host or cells: DU-145", "T1 sequence (P41743 1-596)": "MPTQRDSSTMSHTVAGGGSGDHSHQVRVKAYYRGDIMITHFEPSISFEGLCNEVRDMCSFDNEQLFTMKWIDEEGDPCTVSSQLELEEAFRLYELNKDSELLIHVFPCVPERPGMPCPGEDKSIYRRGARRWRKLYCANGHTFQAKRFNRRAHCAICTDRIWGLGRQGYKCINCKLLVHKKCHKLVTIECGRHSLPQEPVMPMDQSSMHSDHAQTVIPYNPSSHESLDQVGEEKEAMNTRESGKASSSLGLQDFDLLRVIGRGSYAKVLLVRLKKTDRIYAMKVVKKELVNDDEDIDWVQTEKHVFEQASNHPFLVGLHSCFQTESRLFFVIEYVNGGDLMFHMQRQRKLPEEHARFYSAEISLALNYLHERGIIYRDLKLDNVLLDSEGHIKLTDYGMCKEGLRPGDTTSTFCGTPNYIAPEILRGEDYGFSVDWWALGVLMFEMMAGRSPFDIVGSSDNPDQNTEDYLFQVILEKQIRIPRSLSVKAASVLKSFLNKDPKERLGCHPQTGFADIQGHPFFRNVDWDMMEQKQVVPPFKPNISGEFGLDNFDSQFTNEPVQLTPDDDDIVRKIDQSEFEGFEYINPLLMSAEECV", "assay": "PKC-iota levels in prostate cells by Western blot after treatment", "format": "cell-based", "conditions": "72 hours after treatment", "description": "Protein was harvested from cultured cells using Lysis Buffer purchased from Cell Signaling. Protein content was measured according to the Bradford method. Tissue extracts containing equal amounts of protein in each lane were run on SDS-PAGE gels. The tissue lysates (50 μg) were Western blotted for PKC-τ (10 μg, 1:2500 dilution): and PKC-ζ (5 μg, 1:4000 dilution) and β-actin (10 μg, 1:3000 dilution).\n(§4) Western blots were developed on the Protein Simple Flour Chem M. Accompanied by the Alpha view software for analysis.\nICA-1 was used as a PKC-iota inhibitor. […] The cells were counted before and after the treatments and a statistical analysis was performed. Following cell counting, the cells were lysed and levels of PKC-iota and PKC-zeta were measured by Western blotting and immunoprecipitation."}, "[3]": {"system": "Survivin", "assay": "Apoptotic marker Survivin by Western blot", "format": "cell-based, human"}, "[4]": {"system": "NF-kB", "assay": "NF-kB translocation after TNF-α exposure (cell subfractionation)", "format": "cell-based, human", "conditions": "DU-145 and PC-3 cells (cell line not specified), 10 μM, vs untreated control", "description": "20,000 cells were seeded into each.\nas §4"}, "[5]": {"system": "PC-3 cells", "assay": "Cell proliferation assay / cell counting, PC-3 cells", "format": "cell-based, human", "description": "as §1, §2, §3"}, "[6]": {"system": "Cytochrome C", "assay": "Apoptotic marker Cytochrome C by Western blot", "format": "cell-based, human"}, "[7]": {"system": "DU-145 cells", "assay": "Cell proliferation assay / cell counting, DU-145 cells", "format": "cell-based, human", "description": "as §1, §2, §3"}, "[8]": {"conditions": "DU-145 cells, 72 hours of treatment"}, "[9]": {"conditions": "RWPE cells, 72 hours of treatment"}}}
{"smiles": "NC(=O)c1ncn([C@H]2C[C@@H](COP(=O)(O)O)[C@H](O)[C@@H]2O)c1N", "note": "[ICA-1]", "values": [{"measurement": "decrease in cell population (dose-response curve)", "setting": "[1]", "value": "not having a significant decrease"}, {"measurement": "average decrease in PKC-τ", "setting": "[2]; DU-145 cells", "value": 46, "unit": "%"}, {"measurement": "decrease in PKC-τ", "setting": "[2]; PC-3 cells", "value": 40, "unit": "%"}, {"measurement": "reduction of Survivin (in words)", "setting": "[3]; [8]", "value": "reduction of Survivin by half"}, {"measurement": "decrease in Survivin", "setting": "[3]; PC-3 cells", "value": 40, "unit": "%"}, {"measurement": "decrease in Survivin", "setting": "[3]; [9]", "value": 10, "unit": "%"}, {"measurement": "decrease of nucleic NFkB", "setting": "[4]", "value": 5, "unit": "fold"}, {"measurement": "average decline of cell population", "setting": "[5]", "value": 18, "unit": "%"}, {"measurement": "increase in Cytochrome C", "setting": "[6]; [8]", "value": "~3", "unit": "fold"}, {"measurement": "increase in Cytochrome C", "setting": "[6]; PC-3 cells", "value": 2, "unit": "fold"}, {"measurement": "increase of Cytochrome C", "setting": "[6]; [9]", "value": 8, "unit": "%"}, {"measurement": "decrease in cell population (dose-response curve)", "setting": "[7]; 10 μM, malignant cells (DU-145)", "value": "statistically significant decrease in population"}, {"measurement": "reduction in cell growth compared to untreated cells", "setting": "[7]; DU-145 cells", "value": 19, "unit": "%"}]}
